Tests used:
Format in all cases: functional
SN12C = assay: Cytotoxicity against human SN12C cells assessed as cell growth at 1 uM after 48 hrs by sulforhodamine B assay relative to control; details: read-out: Activity
TK-10 = assay: Cytotoxicity against human TK10 cells assessed as cell growth at 10 uM after 48 hrs by sulforhodamine B assay relative to control; details: TK-10, 48 h, read-out: Activity
PC-3 = assay: Cytotoxicity against human PC3 cells assessed as cell growth at 1 uM after 48 hrs by sulforhodamine B assay relative to control; details: PC-3, 48 h, read-out: Activity
MOLT-4 = assay: Cytotoxicity against human MOLT4 cells assessed as cell growth at 100 uM after 48 hrs by sulforhodamine B assay relative to control; details: MOLT-4, 48 h, read-out: Activity
HOP-62 [1] = assay: Cytotoxicity against human HOP62 cells assessed as cell growth at 0.01 uM after 48 hrs by sulforhodamine B assay relative to control; details: HOP-62, 48 h, read-out: Activity
KM12 = assay: Cytotoxicity against human KM12 cells assessed as cell growth at 0.01 uM after 48 hrs by sulforhodamine B assay relative to control; details: KM12, 48 h, read-out: Activity
UO-31 = assay: Cytotoxicity against human UO31 cells assessed as cell growth at 0.1 uM after 48 hrs by sulforhodamine B assay relative to control; details: UO-31, 48 h, read-out: Activity
NCI-H460 [2] = assay: Cytotoxicity against human NCI-H460 cells assessed as cell growth at 100 uM after 48 hrs by sulforhodamine B assay relative to control; details: NCI-H460, 48 h, read-out: Activity
SK-MEL-5 = assay: Cytotoxicity against human SK-MEL-5 cells assessed as cell growth at 10 uM after 48 hrs by sulforhodamine B assay relative to control; details: SK-MEL-5, 48 h, read-out: Activity
A498 [3] = assay: Cytotoxicity against human A498 cells assessed as cell growth at 10 uM after 48 hrs by sulforhodamine B assay relative to control; details: A498, 48 h, read-out: Activity
HT-29 = assay: Cytotoxicity against human HT-29 cells assessed as cell growth at 0.1 uM after 48 hrs by sulforhodamine B assay relative to control; details: HT-29, 48 h, read-out: Activity
NCI-H460 [4] = assay: Cytotoxicity against human NCI-H460 cells assessed as cell growth at 0.01 uM after 48 hrs by sulforhodamine B assay relative to control; details: NCI-H460, 48 h, read-out: Activity
UACC-257 [5] = assay: Cytotoxicity against human UACC257 cells assessed as cell growth at 100 uM after 48 hrs by sulforhodamine B assay relative to control; details: UACC-257, 48 h, read-out: Activity
NCI-H522 = assay: Cytotoxicity against human NCI-H522 cells assessed as growth inhibition after 48 hrs by sulforhodamine B assay; details: NCI-H522, 48 h
NCI-H322M [6] = assay: Cytotoxicity against human NCI-H322M cells assessed as cell growth at 100 uM after 48 hrs by sulforhodamine B assay relative to control; details: read-out: Activity
HL-60(TB) = assay: Cytotoxicity against human HL-60(TB) cells assessed as cell growth at 10 uM after 48 hrs by sulforhodamine B assay relative to control; details: HL-60, 48 h, read-out: Activity
SK-MEL-28 [7] = assay: Cytotoxicity against human SK-MEL-28 cells assessed as cell growth at 10 uM after 48 hrs by sulforhodamine B assay relative to control; details: SK-MEL-28, 48 h, read-out: Activity
HOP-62 [8] = assay: Cytotoxicity against human HOP62 cells assessed as cell growth at 100 uM after 48 hrs by sulforhodamine B assay relative to control; details: HOP-62, 48 h, read-out: Activity
NCI-H322M [9] = assay: Cytotoxicity against human NCI-H322M cells assessed as cell growth at 0.1 uM after 48 hrs by sulforhodamine B assay relative to control; details: read-out: Activity
RPMI-8226 = assay: Cytotoxicity against human RPMI8226 cells assessed as cell growth at 10 uM after 48 hrs by sulforhodamine B assay relative to control; details: RPMI-8226, 48 h, read-out: Activity
SR = assay: Cytotoxicity against human SR cells assessed as cell growth at 0.1 uM after 48 hrs by sulforhodamine B assay relative to control; details: read-out: Activity
SF-268 = assay: Cytotoxicity against human SF268 cells assessed as cell growth at 0.01 uM after 48 hrs by sulforhodamine B assay relative to control; details: SF-268, 48 h, read-out: Activity
MDA-MB-468 = assay: Cytotoxicity against human MDA-MB-468 cells assessed as growth inhibition after 48 hrs by sulforhodamine B assay; details: MDA-MB-468, 48 h
UACC-62 = assay: Cytotoxicity against human UACC62 cells assessed as cell growth at 0.01 uM after 48 hrs by sulforhodamine B assay relative to control; details: UACC-62, 48 h, read-out: Activity
HCT-15 [10] = assay: Cytotoxicity against human HCT15 cells assessed as cell growth at 10 uM after 48 hrs by sulforhodamine B assay relative to control; details: HCT-15, 48 h, read-out: Activity
HCT-15 [11] = assay: Cytotoxicity against human HCT15 cells assessed as cell growth at 0.1 uM after 48 hrs by sulforhodamine B assay relative to control; details: HCT-15, 48 h, read-out: Activity
SK-MEL-28 [12] = assay: Cytotoxicity against human SK-MEL-28 cells assessed as cell growth at 0.1 uM after 48 hrs by sulforhodamine B assay relative to control; details: SK-MEL-28, 48 h, read-out: Activity
COLO 205 = assay: Cytotoxicity against human COLO205 cells assessed as growth inhibition after 48 hrs by sulforhodamine B assay; details: COLO 205, 48 h
UACC-257 [13] = assay: Cytotoxicity against human UACC257 cells assessed as cell growth at 10 uM after 48 hrs by sulforhodamine B assay relative to control; details: UACC-257, 48 h, read-out: Activity
OVCAR-5 = assay: Cytotoxicity against human OVCAR5 cells assessed as cell growth at 0.01 uM after 48 hrs by sulforhodamine B assay relative to control; details: OVCAR-5, 48 h, read-out: Activity
RXF 393 = assay: Cytotoxicity against human RXF393 cells assessed as growth inhibition after 48 hrs by sulforhodamine B assay; details: RXF 393, 48 h
A498 [14] = assay: Cytotoxicity against human A498 cells assessed as cell growth at 1 uM after 48 hrs by sulforhodamine B assay relative to control; details: A498, 48 h, read-out: Activity
Hs-578T = assay: Cytotoxicity against human Hs 578T cells assessed as cell growth at 1 uM after 48 hrs by sulforhodamine B assay relative to control; details: read-out: Activity
HCT-116 = assay: Cytotoxicity against human HCT116 cells assessed as growth inhibition after 48 hrs by sulforhodamine B assay; details: HCT-116, 48 h
MCF7 = assay: Cytotoxicity against human MCF7 cells assessed as cell growth at 0.01 uM after 48 hrs by sulforhodamine B assay relative to control; details: MCF7, 48 h, read-out: Activity

SMILES: COc1cc(-c2cc(/C=C/C(=O)c3ccc(F)c(F)c3)[nH]n2)cc(OC)c1OC
- growth at 1 µM (SN12C): 89%
- growth at 10 µM (TK-10): -13%
- growth at 1 µM (PC-3): 70%
- growth at 100 µM (MOLT-4): -14%
- growth at 0.01 µM (HOP-62 [1]): 100%
- growth at 0.01 µM (KM12): 96%
- growth at 0.1 µM (UO-31): 86%
- growth at 100 µM (NCI-H460 [2]): -54%
- growth at 10 µM (SK-MEL-5): -21%
- growth at 10 µM (A498 [3]): -14%
- growth at 0.1 µM (HT-29): 102%
- growth at 0.01 µM (NCI-H460 [4]): 106%
- growth at 100 µM (UACC-257 [5]): -37%
- LC50 (NCI-H522): 65.2 µM
- TGI (NCI-H522): 4.48 µM
- growth at 100 µM (NCI-H322M [6]): 3%
- growth at 10 µM (HL-60(TB)): -29%
- growth at 10 µM (SK-MEL-28 [7]): 32%
- growth at 100 µM (HOP-62 [8]): 4%
- growth at 0.1 µM (NCI-H322M [9]): 94%
- growth at 10 µM (RPMI-8226): -21%
- growth at 0.1 µM (SR): 106%
- growth at 0.01 µM (SF-268): 94%
- GI50 (MDA-MB-468): 2.22 µM
- LC50 (MDA-MB-468): > 100 µM
- TGI (MDA-MB-468): 9.47 µM
- growth at 0.01 µM (UACC-62): 97%
- growth at 10 µM (HCT-15 [10]): 9%
- growth at 0.1 µM (HCT-15 [11]): 95%
- growth at 0.1 µM (SK-MEL-28 [12]): 102%
- LC50 (COLO 205): 6 µM
- TGI (COLO 205): 3.19 µM
- growth at 10 µM (UACC-257 [13]): -18%
- growth at 0.01 µM (OVCAR-5): 99%
- LC50 (concentration killing 50% of cells) (RXF 393): 54.1 µM
- TGI (RXF 393): 6.34 µM
- growth at 1 µM (A498 [14]): 81%
- growth at 1 µM (Hs-578T): 86%
- LC50 (HCT-116): 94.2 µM
- TGI (HCT-116): 13.9 µM
- growth at 0.01 µM (MCF7): 91%

SMILES: COc1cc(-c2cc(/C=C/C(=O)c3ccc(Cl)c(Cl)c3)[nH]n2)cc(OC)c1OC
- growth at 1 µM (SN12C): 91%
- growth at 10 µM (TK-10): 46%
- growth at 1 µM (PC-3): 87%
- growth at 100 µM (MOLT-4): -15%
- growth at 0.01 µM (HOP-62 [1]): 99%
- growth at 0.01 µM (KM12): 96%
- growth at 0.1 µM (UO-31): 85%
- growth at 100 µM (NCI-H460 [2]): -24%
- growth at 10 µM (SK-MEL-5): 62%
- growth at 10 µM (A498 [3]): 43%
- growth at 0.1 µM (HT-29): 98%
- growth at 0.01 µM (NCI-H460 [4]): 105%
- growth at 100 µM (UACC-257 [5]): -10%
- LC50 (NCI-H522): 6.97 µM
- TGI (NCI-H522): 3.04 µM
- growth at 100 µM (NCI-H322M [6]): 5%
- growth at 10 µM (HL-60(TB)): 43%
- growth at 10 µM (SK-MEL-28 [7]): 73%
- growth at 100 µM (HOP-62 [8]): -74%
- growth at 0.1 µM (NCI-H322M [9]): 92%
- growth at 10 µM (RPMI-8226): -7%
- growth at 0.1 µM (SR): 89%
- growth at 0.01 µM (SF-268): 92%
- GI50 (MDA-MB-468): 1.98 µM
- LC50 (MDA-MB-468): > 100 µM
- TGI (MDA-MB-468): 7.22 µM
- growth at 0.01 µM (UACC-62): 97%
- growth at 10 µM (HCT-15 [10]): 29%
- growth at 0.1 µM (HCT-15 [11]): 94%
- growth at 0.1 µM (SK-MEL-28 [12]): 114%
- LC50 (COLO 205): > 100 µM
- TGI (COLO 205): 15.8 µM
- growth at 10 µM (UACC-257 [13]): 66%
- growth at 0.01 µM (OVCAR-5): 97%
- LC50 (concentration killing 50% of cells) (RXF 393): 54.6 µM
- TGI (RXF 393): 12.8 µM
- growth at 1 µM (A498 [14]): 73%
- growth at 1 µM (Hs-578T): 104%
- LC50 (HCT-116): > 100 µM
- TGI (HCT-116): 21.5 µM
- growth at 0.01 µM (MCF7): 105%

SMILES: COc1ccc(-c2cc(/C=C/C(=O)c3ccc4c(c3)OCO4)[nH]n2)cc1OC
- GI50 (NCI-H522): 1.69 µM
- GI50 (MDA-MB-468): 1.09 µM
- GI50 (COLO 205): 1.55 µM
- GI50 (RXF 393): 1.92 µM
- GI50 (HCT-116): 0.36 µM
